We go through 24 compounds from ChEMBL document CHEMBL5329222, “Discovery of novel tubulin CBSI (R)-9k from the indanone scaffold for the treatment of colorectal cancer” (RSC Med Chem, 2023).

In data set [1] the test system is HeLa. The data set is described as follows: Antiproliferative activity against human HeLa cells assessed as inhibition of cell growth incubated for 1.5 hrs by CCK-8 assay. It counts as functional, cell-based. A general note: Formazan colour is commonly taken as a measure of viable cells.
Data set [2] relates to HCT-116. Put plainly: Antiproliferative activity against human HCT-116 cells assessed as inhibition of cell growth incubated for 1.5 hrs by CCK-8 assay. It counts as functional, cell-based. As to conditions: HCT-116, 1.5 h.
The test system of data set [3] is A2780. The data set is described as follows: Antiproliferative activity against human A2780 cells assessed as inhibition of cell growth incubated for 1.5 hrs by CCK-8 assay. Type of data set: functional, cell-based.
Another data set deals with CT26. The data set is described as follows: Growth inhibition of CT26 cells incubated for 1.5 hrs by MTT assay. It counts as functional, cell-based. Conditions: Mus musculus, CT26, 1.5 h.
The test system of data set [4] is A2780. Put plainly: Growth inhibition of human A2780 cells incubated for 1.5 hrs by MTT assay. It counts as functional, cell-based. Conditions: A2780, 1.5 h.
The test system of data set [5] is HeLa. Put plainly: Growth inhibition of human HeLa cells incubated for 1.5 hrs by MTT assay. Type of data set: functional, cell-based.
Another data set concerns SW480. Put plainly: Growth inhibition of human SW480 cells incubated for 1.5 hrs by MTT assay. Type of data set: functional, cell-based.
Data set [6] has as its system HCT-116. Put plainly: Growth inhibition of human HCT-116 cells incubated for 1.5 hrs by MTT assay. It counts as functional, cell-based. As to conditions: HCT-116, 1.5 h.
The target in the next data set is Tubulin. The data set is described as follows: Inhibition of tubulin (unknown origin) polymerization. Type of data set: protein-complex assay, Homo sapiens.
Another data set concerns MDA-MB-231. Put plainly: Antiproliferative activity against human MDA-MB-231 cells assessed as inhibition of cell growth incubated for 24 hrs by MTT assay. Type of data set: functional, cell-based. Conditions: MDA-MB-231, 24 h.
The next data set relates to MCF7. The data set is described as follows: Antiproliferative activity against human MCF7 cells assessed as inhibition of cell growth incubated for 24 hrs by MTT assay. Type of data set: functional, cell-based. As to conditions: MCF7, 24 h.
Another data set concerns the target Estrogen receptor beta (Homo sapiens, UniProt Q92731). The data set is described as follows: Binding affinity to human recombinant ERbeta incubated for 20 mins.
Data set [7] in a line: Cytotoxicity against human HUVEC cells assessed as inhibition of cell growth incubated 1.5 hrs by MTT assay. It counts as toxicity, cell-based.
The nature of data set [8]: Cytotoxicity against HEK293 cells assessed as inhibition of cell growth incubated 1.5 hrs by MTT assay. It counts as toxicity, cell-based. Conditions: human.
Data set [9] deals with HCT-116. Put plainly: Inhibition of colony formation in human HCT-116 cells at 0.1 uM incubated for 48 hrs by crystal violet staining based analysis. Type of data set: functional.
For data set [10], the target named is Tubulin beta (Homo sapiens) (UniProt P68371+Q9H4B7+Q13509+P04350+Q3ZCM7+P07437+Q13885+Q9BVA1+Q9BUF5+A6NNZ2). The data set is described as follows: Binding affinity to beta-tubulin colchicine binding site in human HCT-116 cells assessed as inhibition of EBI-beta-tubulin adduct band formation at 5 to 25 uM preincubated for 2 hrs followed by EBI addition measured after 1.5 hrs by EBI competition based Western blotting analysis. It counts as cell-based. Conditions: dose 5-25 µM, time 3.5 hrs. A general note: In western blotting, separated proteins are transferred to a membrane and probed.

In data set [11] the test system is HeLa. The data set is described as follows: Potency index, ratio of 5-fluorouracil IC50 to test compound IC50 for antiproliferative activity against human HeLa cells assessed as inhibition of cell growth. It counts as functional.
Data set [12] deals with A2780. Put plainly: Potency index, ratio of 5-fluorouracil IC50 to test compound IC50 for antiproliferative activity against human A2780 cells assessed as inhibition of cell growth. Type of data set: functional.
The subject of data set [13] is HCT-116. The data set is described as follows: Potency index, ratio of 5-fluorouracil IC50 to test compound IC50 for antiproliferative activity against human HCT-116 cells assessed as inhibition of cell growth. It counts as functional.

The structures appear in SMILES notation. Calls of active or inactive are those of the source. The calls are words filed in the database; no cut-off is given here.

In general, IC50 refers to the point on the concentration scale where inhibition reaches its midpoint.

Sequence of Estrogen receptor beta (Q92731 whole entry): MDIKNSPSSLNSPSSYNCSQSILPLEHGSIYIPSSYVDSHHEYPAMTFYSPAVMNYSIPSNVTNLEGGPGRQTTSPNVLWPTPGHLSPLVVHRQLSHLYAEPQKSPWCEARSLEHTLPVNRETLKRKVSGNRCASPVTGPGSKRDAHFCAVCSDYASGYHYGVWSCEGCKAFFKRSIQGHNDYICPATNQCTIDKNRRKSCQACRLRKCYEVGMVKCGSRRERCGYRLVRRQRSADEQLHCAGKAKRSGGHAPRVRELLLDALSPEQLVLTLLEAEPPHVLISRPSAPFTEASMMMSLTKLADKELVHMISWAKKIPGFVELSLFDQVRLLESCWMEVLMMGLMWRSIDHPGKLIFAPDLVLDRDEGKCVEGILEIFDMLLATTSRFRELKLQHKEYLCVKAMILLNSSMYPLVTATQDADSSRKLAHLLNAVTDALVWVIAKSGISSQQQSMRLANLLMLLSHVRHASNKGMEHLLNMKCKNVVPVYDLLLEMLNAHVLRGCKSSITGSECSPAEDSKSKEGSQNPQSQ

On to `CCOc1ccc(C2CC(=O)c3cc(OC)c(OC)c(OC)c32)cc1Cl` (stereo not drawn), for which the values for the IC50 in the data set on HeLa [1], with HCT-116 [2] and with A2780 [3] were 2.08 µM, 1.86 µM and 2.33 µM, respectively.

For `CCOc1ccc([C@@H]2CC(=O)c3cc(OC)c(OC)c(OC)c32)cc1F`, the IC50 was 10.8 µM in the data set on CT26; 3.69 µM with A2780 [4]; 1.05 µM in the data set with HeLa [5]; 4.52 µM in the data set on SW480; 0.58 µM with HCT-116 [6].

Consider `COc1cc2c(c(OC)c1OC)C(c1ccc(SC)cc1)CC2=O` (stereo not drawn), for which the figures for the IC50 with HeLa [1], in the data set on HCT-116 [2] and with A2780 [3] were 2.27 µM, 1.82 µM and 2.91 µM, respectively.

Turning to `COc1ccc(C2CC(=O)c3cc(OC)c(OC)c(OC)c32)cc1Br` (stereo not drawn), the figures for the IC50 in the data set on HeLa [1], with HCT-116 [2] and with A2780 [3] were 3.52 µM, 0.8 µM and 4.87 µM, respectively.

Take `COc1cc2c(c(OC)c1OC)C(c1ccc(OC(C)C)cc1)CC2=O` (stereo not drawn): the IC50 in the data set on HeLa [1] is 6.87 µM; in the data set on HCT-116 [2] it was 17.3 µM; in the data set with A2780 [3], 4.98 µM.

In the case of `COc1ccc(C2CC(=O)c3cc(OC)c(OC)c(OC)c32)cc1Cl` (stereo not drawn), the IC50 in the data set with HeLa [1] was found to be 2.13 µM; in the data set with HCT-116 [2], 0.31 µM; with A2780 [3], 2.52 µM.

For the compound `COc1cc(C2CC(=O)c3cc(OC)c(OC)c(OC)c32)ccc1Cl` (stereo not drawn), the IC50 in the data set with HeLa [1], in the data set on HCT-116 [2] and with A2780 [3] was above 100 µM each time.

Consider `COc1ccc([C@H]2NC(=O)c3cc(OC)cc(OC)c32)cc1`, for which the IC50 on Tubulin was above 100 µM.

Regarding `COc1cc(OC)cc(C2CC(=O)c3cc(OC)c(OC)c(OC)c32)c1` (stereo not drawn), the IC50 in the data set with HeLa [1], in the data set on HCT-116 [2] and in the data set with A2780 [3] was above 100 µM each time.

Consider `COc1ccc(C2CC(=O)c3cc(OC)c(OC)c(OC)c32)cc1OC` (stereo not drawn), for which the results for the IC50 in the data set on HeLa [1], in the data set with HCT-116 [2] and in the data set with A2780 [3] were 8.21 µM, 13.3 µM and 23.9 µM, respectively.

Regarding `COc1cc(C2CC(=O)c3cc(OC)c(OC)c(OC)c32)cc(OC)c1OC` (stereo not drawn), the IC50 in the data set with HeLa [1], in the data set on HCT-116 [2] and in the data set with A2780 [3] was above 100 µM each time.

Turning to `CCOc1ccc(C2CC(=O)c3cc(OC)c(OC)c(OC)c32)cc1Br` (stereo not drawn), the IC50 turned out to be 4.99 µM in the data set with HeLa [1], 8.99 µM in the data set on HCT-116 [2] and 4.11 µM in the data set with A2780 [3].

In the case of `COc1cc2c(c(OC)c1OC)C(c1ccc(OC(C)(C)C)cc1)CC2=O` (stereo not drawn), the IC50 was 9.15 µM with HeLa [1], 15.4 µM with HCT-116 [2] and 12.6 µM with A2780 [3].

Take `COc1ccc([C@@H]2C(=O)c3ccc(OC)cc3[C@H]2c2ccc(OCCN3CCC(C)CC3)cc2)cc1`: the IC50 came out at 3.94 µM in the data set with MDA-MB-231, 7.16 µM with MCF7 and 0.51 µM on Estrogen receptor beta.

`COc1ccc(C2CC(=O)c3cc(OC)c(OC)c(OC)c32)cc1[N+](=O)[O-]` (stereo not drawn): the IC50 with HeLa [1] is 2.22 µM; in the data set with HCT-116 [2], 1.93 µM; in the data set on A2780 [3], 2.73 µM.

On Tubulin, `COc1ccc([C@H]2NC(=O)c3cc(OC)c(OC)c(OC)c32)cc1` showed an IC50 of 52 µM.

On to `COc1ccc(C2CC(=O)c3cc(OC)c(OC)c(OC)c32)cc1F` (stereo not drawn), for which the IC50 in the data set on HeLa [1] is 0.6 µM; in the data set with HCT-116 [2], 0.25 µM; with A2780 [3], 0.7 µM.

`O=c1[nH]cc(F)c(=O)[nH]1` [FLUOROURACIL]: the IC50 is 59.2 µM in the data set with CT26; 32.1 µM with A2780 [4]; 15.7 µM in the data set with HeLa [1]; 37.5 µM with SW480; 36.3 µM in the data set on A2780 [3]. Also, the IC50 at 1.5 h in [7] was 0.43 µM; in [8] it was 5.11 µM.

In the case of `COc1cc2c(c(OC)c1OC)-c1ccc(OC)c(=O)cc1[C@@H](NC(C)=O)CC2` [COLCHICINE], the IC50 is 0.026 µM in the data set on HeLa [1], 0.035 µM in the data set with HCT-116 [2] and 0.043 µM in the data set with A2780 [3]. For the same compound, the inhibition result with HCT-116 [9] is “Active”. Moreover, the IC50 at 1.5 h was 9.62 µM in data set [7] and 0.17 µM in data set [8].

Take `CCOc1ccc(C2CC(=O)c3cc(OC)c(OC)c(OC)c32)cc1` (stereo not drawn): the figures for the IC50 in the data set with HeLa [1], with HCT-116 [2] and in the data set with A2780 [3] were 0.48 µM, 0.3 µM and 0.71 µM, respectively.

Consider `COc1ccc(C2CC(=O)c3cc(OC)c(OC)c(OC)c32)cc1I` (stereo not drawn), for which the IC50 came to 7.22 µM with HeLa [1], 8.5 µM in the data set on HCT-116 [2] and 7.58 µM with A2780 [3].

In the case of `COc1ccc(C2CC(=O)c3cc(OC)c(OC)c(OC)c32)cc1` (stereo not drawn), the values for the IC50 with HeLa [1], with HCT-116 [2] and in the data set on A2780 [3] were 0.43 µM, 1.88 µM and 0.69 µM, respectively.

On to `CC[C@]1(O)C[C@H]2CN(CCc3c([nH]c4ccccc34)[C@@](C(=O)OC)(c3cc4c(cc3OC)N(C=O)[C@H]3[C@@](O)(C(=O)OC)[C@H](OC(C)=O)[C@]5(CC)C=CCN6CC[C@]43[C@@H]65)C2)C1`, for which, in data set [10], the result was Active.

Take `CCOc1ccc(C2CC(=O)c3cc(OC)c(OC)c(OC)c32)cc1F` (stereo not drawn): the IC50 came to 5.24 µM with CT26; 1.81 µM with A2780 [4]; 0.37 µM in the data set on HeLa [1]; 0.24 µM in the data set with HCT-116 [2]; 0.66 µM in the data set with HeLa [5]; 3.6 µM with SW480. Further, the IC50 is 0.51 µM in the data set on A2780 [3] and 0.35 µM in the data set with HCT-116 [6]. Besides, the “Ratio IC50” value is on record as 42 in the data set on HeLa [11], 71 with A2780 [12] and 54 in the data set on HCT-116 [13].
